# Values quoted from earlier work as cited in patent US20160347856A1, “Use of Anti-MUC1 Maytansinoid Immunoconjugate Antibody for the Treatment of Solid Tumors” (SANOFI, priority 2013, published 2016).
# Columns and labels:
# [1] = poor therapeutic effects because of high systemic toxicity; Foster et al. (1996), Wolff et al. (1996)
# [2] = Bhuyan et al. (1982)
# mice = settings: single intravenous dose of 12.5 μg/kg; Reynolds et al. (1986)
Compound,Clinical evaluation [1],"Potency in vitro relative to doxorubicin, methotrexate and vincristine [2]",Toxicity after administration to mice (mice)
Cc1c[nH]c2c1[C@@]13C[C@@H]1CN(C(=O)c1cc4cc(NC(=O)c5cc6ccccc6o5)ccc4[nH]1)C3=CC2=O [Adozelesin],disappointing results,–,–
COc1c(O)c2c(c3cc(C(=O)N4CCc5c4c(O)c(OC)c4[nH]c(C(=O)N6CC7CC78C6=CC(=O)c6[nH]cc(C)c68)cc54)[nH]c13)CCN2C(N)=O (stereo not shown) [CC-1065],–,about 1000 fold,delayed hepatotoxicity leading to mortality on day 50
CCN(CC)c1ccc2cc(C(=O)Nc3ccc4[nH]c(C(=O)N5C[C@@H](CCl)c6c5cc(OC(=O)Nc5ccccc5)c5[nH]cc(C)c65)cc4c3)oc2c1 [Carzelesin],disappointing results,–,–
